Assay [1] relates to S. cerevisiae vps1Δ apl2Δ growth inhibition, dose response. The assay is described as follows: vps1Δ apl2Δ double mutant yeast growth inhibitors – S. cerevisiae, background strain comparison, post-Golgi transport modulator project, dose response (AID 788).
In assay [2] the test system is S. cerevisiae wild-type background strain growth inhibition. Described as above. The note with it: S. cerevisiae vps1Δ apl2Δ growth inhibition, dose response; measured here: wild-type background strain growth.

The source made the active and inactive calls. No rule for the calls is given here. A value given as a limit tells only on which side of the number the result lay.

On to `COc1ccc(/C=C2\SC(=S)N(NC(=O)c3csc4c3CCCC4)C2=O)cc1`, for which the figures for the IC50 in assay [1] and in assay [2] were > 10 µM (inactive) and more than 10 µM, respectively.
In the case of `Cc1ccc2cc(CN(CCO)Cc3nnnn3Cc3ccc(F)cc3)c(=O)[nH]c2c1`, the IC50 is > 10 µM (inactive) in assay [1] and more than 10 µM in assay [2].
For `O=C(NCC(c1cccnc1)N1CCN(c2ccccc2)CC1)C1CCCCC1` (centres undefined), in that order: > 10 µM (inactive) and more than 10 µM.
Turning to `O=S(=O)(NCC(c1cccnc1)N1CCN(c2ccccc2)CC1)c1cccs1` (centres undefined), the results for the IC50 in assay [1] and in assay [2] were 23 µM and more than 10 µM, respectively.
In the same order, the values of `COc1ccc(-c2nnc(CSc3nc4ccccc4c(=O)n3C)o2)cc1OC` are > 10 µM (inactive) and more than 10 µM.
For `O=C(NCc1ccc2c(c1)OCO2)c1ccc(-n2cnnn2)cc1`, in that order: > 10 µM (inactive) and more than 10 µM.
Regarding `CCOc1ccc(NC(=O)C/C(N)=N/O)cc1`, the IC50 in assay [1] is > 10 µM (inactive); in assay [2], more than 10 µM.
For `Clc1ccc2[nH]c3c(NCC4CCCO4)ncnc3c2c1` (centres undefined), in that order: > 10 µM (inactive) and more than 10 µM.
For `Nc1ccc(Oc2ccc3nc(-c4ccccc4)c(-c4ccccc4)nc3c2)cc1`, in that order: 1.2 µM (inactive) and 1.21 µM.
In the case of `CCOC(=O)c1c(-n2c(C)cc(C=C3C(=O)NC(=S)NC3=O)c2C)sc2c1CCCC2`, the IC50 in assay [1] is > 10 µM (inactive); in assay [2] it was 11.5 µM.
In the case of `O=C(CC(=O)c1cc(Cl)ccc1O)c1ccccc1`, the IC50 was 9.8 µM in assay [1] and 12.7 µM in assay [2].
With `Cc1cc(Cl)cc(C)c1OCCCCN1CCOCC1`, the IC50 is > 10 µM (inactive) in assay [1] and more than 10 µM in assay [2].
In the same order, the values of `c1coc(CNc2nc(N3CCCCC3)nc3ccccc23)c1` are > 10 µM (inactive) and more than 10 µM.
In the case of `O=C(c1ccc(Cl)cc1Cl)N1CCC(c2nc3c(nnn3Cc3ccco3)c(=O)[nH]2)CC1`, the IC50 in assay [1] was > 10 µM (inactive); in assay [2], more than 10 µM.
Turning to `CCOCCCNC(=O)c1cc2sc(Cl)cc2n1CC`, the IC50 in assay [1] is > 10 µM (inactive); in assay [2], more than 10 µM.
Regarding `CCOC(=O)C(NC(C)=O)(Nc1ccc(S(=O)(=O)Nc2onc(C)c2C)cc1)C(F)(F)F` (centres undefined), the results for the IC50 in assay [1] and in assay [2] were > 10 µM (inactive) and more than 10 µM, respectively.
For `CCC(=O)c1ccc(N2CCN(C(=O)c3ccc(Br)cc3)CC2)c(F)c1`, in that order: 25 µM and more than 10 µM.
In the same order, the values of `CCn1c(-c2c[nH]c3ccccc23)n[nH]c1=S` are > 10 µM (inactive) and more than 10 µM.
For `O=C(NC1CCCC1)C(c1ccsc1)N(C(=O)Cc1cccs1)c1ccc(F)cc1` (centres undefined), in that order: > 10 µM (inactive) and more than 10 µM.
As for `O=C1OCC2=C1C(c1ccc(F)cc1)Sc1ccccc1N2` (centres undefined), the half-maximal inhibitory concentration (IC50) in assay [1] is 23.9 µM; in assay [2], more than 10 µM.
In the same order, the values of `Cc1ccc(C(=O)c2c(NC(=O)c3ccncc3)sc3c2CCCC3)cc1` are 16.9 µM and more than 10 µM.
Consider `COc1ccc(Cl)cc1NC(=O)C(C)N1CCN(C/C=C/c2ccccc2)CC1` (centres undefined), for which the IC50 in assay [1] is 9.01 µM; in assay [2], 15 µM.
For `O=C1c2ccccc2C(=O)c2c1oc(C(F)(F)F)c2C(=O)c1ccccc1`, the IC50 in assay [1] was 2.92 µM (inactive); in assay [2], 2.2 µM.
Regarding `Cc1ccc(OCC(O)CN2CCN(Cc3ccc4c(c3)OCO4)CC2)c(C)c1` (centres undefined), the IC50 was 2.35 µM in assay [1] and more than 10 µM in assay [2].
For `CC(C)(C)n1nnnc1CN(Cc1cccnc1)Cc1ccccc1Cl`, in that order: > 10 µM (inactive) and more than 10 µM.
For `CCOC(=O)COc1ccccc1C1Nc2ccccc2C(=O)N1c1cccc(Cl)c1` (centres undefined), in that order: 19.3 µM and more than 10 µM.
As to `CCOC(=O)C1=C(CSc2nc(-c3ccccc3)ccc2C#N)OC(N)=C(C#N)C1c1cccnc1` (centres undefined), the IC50 was > 10 µM (inactive) in assay [1] and more than 10 µM in assay [2].
Take `O=[N+]([O-])c1ccc(N2CCN(S(=O)(=O)c3ccc(Cl)cc3)CC2)cc1NCc1cccnc1`: the IC50 in assay [1] is > 10 µM (inactive); in assay [2], more than 10 µM.
With `CCc1n[nH]c2c1/C(=N\O)CC(C)(C)C2`, the results for the IC50 in assay [1] and in assay [2] were > 10 µM (inactive) and more than 10 µM, respectively.
For `O=C(OCn1nnc2ccccc2c1=O)c1cn(-c2ccccc2)nc1-c1cccnc1`, in that order: > 10 µM (inactive) and more than 10 µM.
For the compound `O=C(c1ccco1)N1CCN(c2ncnc3c2[nH]c2ccccc23)CC1`, the results for the IC50 in assay [1] and in assay [2] were > 10 µM (inactive) and more than 10 µM, respectively.
In the same order, the values of `CCN(CC)C(=O)C1CCN(Cc2ccc(Br)cc2)CC1` are > 10 µM (inactive) and more than 10 µM.
With `Cc1cccc(N2CCN(CC(=O)Nc3nccs3)CC2)c1C`, the IC50 in assay [1] was > 10 µM (inactive); in assay [2], more than 10 µM.
On to `Cc1ccc(C(=O)NCc2occc2C(=O)O)o1`, for which the IC50 is > 10 µM (inactive) in assay [1] and more than 10 µM in assay [2].
For `CCN(CC)c1nc2cc(OC)ccc2cc1C#N`, the IC50 was > 10 µM (inactive) in assay [1] and more than 10 µM in assay [2].
For `O=C(C1COc2ccccc2O1)N1CCN(Cc2ccc3c(c2)OCO3)CC1` (centres undefined), in that order: 10.4 µM and more than 10 µM.
For `CC(C)Oc1ccc(/C(O)=C2/C(=O)C(=O)N(CCN(C)C)C2c2ccco2)cc1` (centres undefined), in that order: > 10 µM (inactive) and more than 10 µM.
For `COc1ccccc1N1CCN(C2CCN(C(=O)c3cc(OC)c(OC)c(OC)c3)CC2)CC1`, in that order: > 10 µM (inactive) and more than 10 µM.
With `Cc1nc(NC(=O)c2ccccc2)sc1-c1csc(NCc2ccccc2)n1`, the IC50 is 3.54 µM in assay [1] and more than 10 µM in assay [2].
As to `Cc1ccc(CN2CCN(/N=C/c3cc(Br)ccc3O)CC2)cc1`, the IC50 in assay [1] was 4.32 µM; in assay [2], more than 10 µM.
With `O=C(NCc1ccco1)C(c1cccs1)N(C(=O)Cc1cccs1)c1ccccc1` (centres undefined), the IC50 in assay [1] is > 10 µM (inactive); in assay [2] it was more than 10 µM.
For `Cc1cc(C)c2c(c1)/C(=C/C(=O)c1ccc(Br)s1)C(=O)N2`, in that order: 2.73 µM (inactive) and 1.42 µM.
In the same order, the values of `Cc1nn(-c2ccccn2)c(C)c1Oc1ccccc1O` are > 10 µM (inactive) and more than 10 µM.
For `NC(=O)c1ccsc1NC(=O)c1nc(-c2ccccc2)n(-c2ccccc2)n1`, in that order: > 10 µM (inactive) and more than 10 µM.
As to `COc1cccc(C(=O)N2CCN(C3CCC(c4ccccc4)CC3)CC2)c1OC` (centres undefined), the results for the IC50 in assay [1] and in assay [2] were 5.37 µM and 23.9 µM, respectively.
In the same order, the values of `CCCC(=O)Nc1ccc(Cl)c(NC(=O)c2cccnc2Cl)c1` are > 10 µM (inactive) and more than 10 µM.
In the same order, the values of `O=C(NCc1ccc2c(c1)OCO2)c1ccc(CS(=O)(=O)c2cccc(C(F)(F)F)c2)o1` are > 10 µM (inactive) and more than 10 µM.
Consider `Cc1cc2ncn(CC(O)COc3cccc(C(=O)O)c3)c2cc1C` (centres undefined), for which the IC50 in assay [1] was > 10 µM (inactive); in assay [2], more than 10 µM.
On to `c1ccc(-c2ccc(-c3cnc4n3CCCCC4)cc2)cc1`, for which the IC50 in assay [1] is > 10 µM (inactive); in assay [2], more than 10 µM.
For `O=C(Nc1cc(C(F)(F)F)ccc1-n1cncn1)c1ccc(-c2ccccc2)cc1`, in that order: > 10 µM (inactive) and more than 10 µM.
In the same order, the values of `CC1CC(C)CN(CCOc2ccc(Cl)cc2Cl)C1` (centres undefined) are 6.68 µM and more than 10 µM.
For `Cc1cc(C(C)(C)C)ccc1OCCN1CCCC1`, in that order: 17.1 µM and more than 10 µM.
`Clc1ccc(-c2n[nH]c3c2CCC3)cc1Cl`: the IC50 in assay [1] is 2.65 µM (inactive); in assay [2], 1.81 µM.
Consider `O=C(Nc1nnc(-c2ccc3c(c2)CCCC3)o1)c1ccc(Cl)cc1Cl`, for which the IC50 is 6.32 µM (inactive) in assay [1] and 3.46 µM in assay [2].
As to `Clc1ccc(Cn2nnc(-c3ccc(CN4CCOCC4)cc3)n2)cc1`, the figures for the IC50 in assay [1] and in assay [2] were 1.33 µM and more than 10 µM, respectively.
In the same order, the values of `O=c1c2cccc3c2c(nn1CN1CCOCC1)-c1ccccc1-3` are > 10 µM (inactive) and more than 10 µM.
Take `N#Cc1cn(-c2ccccc2)nc1-c1cc2ccccc2oc1=O`: the IC50 in assay [1] is > 10 µM (inactive); in assay [2], more than 10 µM.
For `N=c1c2c(-c3ccccc3)c(-c3ccccc3)n(Cc3ccco3)c2ncn1Cc1ccco1`, in that order: 16 µM and 21.5 µM.
Regarding `CCOC(=O)c1c(NC(=O)CN2CCCCC2)sc2c1CCC(C=O)=C2Cl`, the IC50 in assay [1] is > 10 µM (inactive); in assay [2] it was more than 10 µM.
For `CC1=CC(C)(C)Nc2ccc(OC(=O)CN3C(=O)c4cccc5cccc(c45)C3=O)cc21`, the IC50 in assay [1] was > 10 µM (inactive); in assay [2], more than 10 µM.
In the case of `C/C(=N\N=C(/N)SC1CC(=O)N(c2ccc(Cl)c(Cl)c2)C1=O)c1cccs1` (centres undefined), the IC50 in assay [1] was 5.05 µM; in assay [2], 5.98 µM.
For `CCCCCOc1ccc(Cl)cc1CN1CCOCC1`, the IC50 is 20.6 µM in assay [1] and more than 10 µM in assay [2].
For `c1ccc(Nc2cc(-c3ccccc3)nc3ncnn23)cc1`, the IC50 in assay [1] is 6.29 µM; in assay [2], more than 10 µM.
`Cn1nnc2cc(C(=O)Nc3cccnc3)ccc21`: the IC50 in assay [1] is > 10 µM (inactive); in assay [2], more than 10 µM.
For `CC1CN(CC(O)COc2ccc(C(C)C)cc2)CC(C)O1` (centres undefined), the IC50 in assay [1] was 15.2 µM; in assay [2], more than 10 µM.
In the same order, the values of `CCCn1nc([N+](=O)[O-])c(C(C#N)c2nc3ccccc3s2)c(Cl)c1=O` (centres undefined) are 5.34 µM (inactive) and 2.16 µM.
For the compound `COc1cc(CN2CCN(c3ccc(C)cc3)CC2)cc([N+](=O)[O-])c1O`, the IC50 in assay [1] is > 10 µM (inactive); in assay [2], more than 10 µM.
